Several values for one entry are separate records, joined by “and”; a condition that tells them apart may be missing. Equal entries are not always repeated.
How the values were obtained:
[1] = In vitro metabolite identification with mouse microsomes; format: in vitro ADME; details: for % Parent remaining (t = 15 min): 5µM, 15 min at 37°C, mouse liver microsomes; for sulfonamide N-dealkylation on incubation with mouse microsomes: words
[2] = Intrinsic clearance (Cli), mouse liver microsomes; format: in vitro ADME; details: for Cli (mouse): mouse liver microsomes; for Cli: mouse microsomes
in vitro = format: cell-based, human; details: human; read-out: MRC-5 EC50
[3] = system: T. b. brucei, BSF427, VSG118; assay: Cell viability assay, trypanosome; format: cell-based; details: for ~EC99: T. brucei
TbNMT = target: T1, TbNMT (Trypanosoma brucei brucei, UniProt Q388H8); assay: NMT enzyme inhibition scintillation proximity assay (TbNMT); format: biochemical, T. brucei; details: mean of two or more determinations; read-out: TbNMT IC50
T1 sequence (Q388H8 1-446): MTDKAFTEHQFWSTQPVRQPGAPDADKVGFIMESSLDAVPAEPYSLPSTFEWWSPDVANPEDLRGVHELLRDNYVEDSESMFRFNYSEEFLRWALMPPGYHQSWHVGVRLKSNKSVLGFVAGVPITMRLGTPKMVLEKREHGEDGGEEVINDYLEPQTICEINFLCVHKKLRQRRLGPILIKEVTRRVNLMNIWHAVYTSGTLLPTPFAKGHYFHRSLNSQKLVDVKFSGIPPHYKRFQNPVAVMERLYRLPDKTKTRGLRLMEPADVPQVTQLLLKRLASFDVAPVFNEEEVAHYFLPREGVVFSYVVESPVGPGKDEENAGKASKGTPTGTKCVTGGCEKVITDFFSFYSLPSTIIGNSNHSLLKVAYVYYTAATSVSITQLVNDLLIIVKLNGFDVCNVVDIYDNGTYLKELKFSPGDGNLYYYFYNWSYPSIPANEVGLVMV

[4] = system: MRC5, human lung fibroblast cells; assay: in vitro; format: cell-based
HsNMT = format: biochemical, human; details: for IC50: mean of two or more determinations; for S = IC50 HsNMT/EC50 T. brucei: selectivity
[5] = Dose calculations for in vivo efficacy studies (brain concentration, brain free fraction); details: for oral dose needed to deliver stage 2 cures (Dose required): b.i.d., calculated to keep brain free concentration above T. brucei EC99
Experimental: isofluorane. A blood sample was taken by cardiac puncture into two volumes of distilled water and the brain removed. After suitable sample preparation, the concentration of 1 in blood and brain was determined by UPLC/MS/MS using a Quattro Premier XE (Waters, USA). For each rat, the concentration in brain (ng/g) was divided by the concentration in blood (ng/mL) to give a brain:blood (B:B) ratio. The mean value obtained was quoted. A higher B:B ratio in animals pre-treated with GF120918 is indicative of a Pgp substrate.
Dose calculations for in vivo efficacy studies.
Property Compound 40 Compound 46 Compound 42
Oral Dose 50mg/kg 50mg/kg 50mg/kg

T. b. brucei GVR35 = format: in vivo; details: for toxicity in infected mice in stage 2 model: dosed at the MTD b.i.d. po for 5 days, mice affected
Source text: NMRI mice used in the experiment were purchased from Harlan, UK. Mice were maintained under standard temperature/lighting conditions and given food and water ad libitum. The trypanosomes used in this study were of the cloned stabilate T. b. brucei GVR35, originally derived from trypanosomes isolated from a wildebeest in the Serengeti in 1966.[31] By 13 days postinfection, parasites entered the CNS.[32] If treatment is delayed until 21 days after infection, successful cure is therefore dependent on the ability of the compound to penetrate through the blood–brain barrier.[33] This model is widely used to evaluate the efficacy of new compounds for treatment against stage 2 HAT.[34]
Cryopreserved T. b. brucei GVR35 trypomastigotes were diluted to ∼5 × 10^4 cells/mL in 20 mM Hanks Balanced Salt Solution with glucose, and 0.2 mL of that dilution was used for infection (∼1 × 10^4 cells/mL per animal). All animals in the groups were intraperitoneally infected (ip) on day 0. After infection, parasitaemia was monitored by examination of tail blood smears. On day 21, post infection animals were randomly allocated to five mice per group. Infected animals were dosed with one of the following: diaminazene diaceturate (ip), 40 mg/kg once only as a HAT stage 1 control (early stage tyrypanocide to clear the parasites in the systemic circulation and in tissues other than CNS); Melasoprol (ip), 10 mg/kg once daily for 5 days as a positive control for HAT stage 2; […]. One group of five mice was an untreated control group. The dose solutions were prepared daily, using 5% DMSO:40% PEG400:55% Milli-Q water for compound (i.e., 40) and 10% DMSO:90% peanut oil for control drugs. To measure the response to treatment, parasitaemia was monitored twice per week until day 50. After day 50, the mice were checked only once per week until day 180 post treatment. Mice surviving to the end of experiment and blood smear aparasitaemic were considered cured.

[6] = Maximum tolerated dose in mice; details: mouse, in vivo
Mouse pharmacokinetics = format: in vivo; details: for Cmax: oral dose 50mg/kg; for oral exposure in mouse: words
Experimental: Test compound was dosed as a bolus solution intravenously at 3 mg free base/kg (dose volume, 5 mL/kg; dose vehicle, saline or 5% DMSO; 40% PEG400; 55% saline) to female NMRI mice (n = 3) or dosed orally by gavage as a solution at 10 and/or 50 mg free base/kg (dose volume, 5 mL/kg; dose vehicle, 5% DMSO; 95% distilled water or 5% DMSO; 40% PEG400; 55% distilled water) to female NMRI mice (n = 3/dose level). Female NMRI mice were chosen as these represent the sex and strain used for the stage 1 and stage 2 HAT efficacy models. Blood samples were taken from each mouse at 2 (IV only), 5 (IV only), 15, and 30 min, 1, 2, 4, 6, 8, and 24 (po only) hours postdose and mixed with two volumes of distilled water. After suitable sample preparation, the concentration of test compound in blood was determined by UPLC-MS/MS using a Quattro Premier XE (Waters, USA). Pharmacokinetic parameters were derived from the mean blood concentration time curve using PKsolutions software v 2.0 (Summit Research Services, USA).

T. b. brucei S427 = assay: Stage 1 HAT mouse efficacy model, T. b. brucei S427; format: in vivo; details: T. b. brucei S427, 50 mg/kg b.i.d. po for 4 days
[7] = system: T. b. rhodesiense STIB900; assay: Stage 1 HAT mouse efficacy model, T. b. rhodesiense STIB900; format: in vivo; details: b.i.d. po for 4 days
[8] = female, NMRI, whole blood, mouse

| SMILES | % Parent remaining (t = 15 min) [1] [%] | sulfonamide N-dealkylation on incubation with mouse microsomes [1] | Cli (mouse) [2] [mL min^–1 g^–1] | Cli [2] [mL/min/g] | EC50 [3] [nM] | IC50 (TbNMT) [nM] | EC50 [4] [nM] | IC50 (HsNMT) [nM] | S = IC50 HsNMT/EC50 T. brucei (HsNMT) | other results |
| --- | --- | --- | --- | --- | --- | --- | --- | --- | --- | --- |
| Cc1nn(C)c(C)c1N(C)[S+](=O)([O-])c1c(Cl)cc(CCCC2CCN(C)CC2)cc1Cl [compound 37] | 25 | N-dealkylated sulfonamide as the predominant metabolite | 7.3 | 7.3 | – | – | – | – | – | EC50 (in vitro): 1100 nM |
| Cc1nn(C)c(C)c1N(C(F)F)S(=O)(=O)c1c(Cl)cc(CCCOC[C@@H]2CCCN2)cc1Cl [compound 86] | – | – | – | – | 6 | 2 | 3300 | 110 | 18 | – |
| Cc1nn(C)c(C)c1N(CC(F)(F)F)[S+](=O)([O-])c1c(Cl)cc(CCCC2CCN(C)CC2)cc1Cl [compound 42] | – | – | 1.1 | 1.1 | – | – | – | – | – | ~EC99 [3]: ~56 nM and ~31 ng/mL; concentration at 8 h ([5]; NMRI, mouse, in vivo, oral dose 50mg/kg, read-out: Free brain conc at 8 hours post-dose): 6.2 ng/g; oral dose needed to deliver stage 2 cures (Dose required) [5]: 250 mg/kg; fraction unbound ([5]; mouse, in vivo): 0.032; Conc in brain ([5]; oral dose 50mg/kg): 569 ng/g; Free brain conc ([5]; oral dose 50mg/kg): 18.2 ng/g; cures in stage 2 model (T. b. brucei GVR35; T. b. brucei GVR35, 150 mg/kg b.i.d. po for 5 days): none of the mice were cured; toxicity in infected mice in stage 2 model (T. b. brucei GVR35): well tolerated; MTD at 1 day [6]: > 200 mg/kg; Cmax (Mouse pharmacokinetics; [8]): 876 ng/mL; Activity in stage 1 mouse model (T. b. brucei S427): fully curative |
| Cc1c(NS(=O)(=O)c2c(Cl)cc(-c3ccnc(N4CCNCC4)c3)cc2Cl)c(CC(C)C)nn1C [compound 6] | – | – | – | – | – | – | – | – | – | stage 1 HAT minimal curative dose, T. b. rhodesiense STIB900 [7]: 6 mg/kg; MTD ([6]; po): 20 mg/kg; AUC(0-t) (Mouse pharmacokinetics; female, NMRI, whole blood, mouse, 10 mg/kg po, read-out: AUC0–8 (converted)): 56700 ng·h/mL |
| CCN(CC)CCCCCCc1cc(Cl)c(S(=O)(=O)N(c2c(C)nn(C)c2C)C(F)F)c(Cl)c1 [compound 81] | – | – | – | – | 14 | 3 | 2900 | 42 | 3 | – |
| CCN(c1c(C)nn(C)c1C)[S+](=O)([O-])c1c(Cl)cc(CCCC2CCN(C)CC2)cc1Cl [compound 39] | 52 | N-dealkylated sulfonamide as the predominant metabolite | 12 | – | – | – | – | – | – | EC50 (in vitro): 2200 nM |
| Cc1nn(C)c(C)c1N(C(F)F)S(=O)(=O)c1c(Cl)cc(CCCCCCN(C)C(C)C)cc1Cl [compound 84] | – | – | – | – | 38 | 3 | 5100 | 180 | 5 | – |
| CCN(c1c(C)nn(C)c1C)S(=O)(=O)c1c(Cl)cc(CCCN2CCN(C)CC2)cc1Cl [compound 34] | 37 | N-dealkylated sulfonamide as the predominant metabolite | 3.1 | 3.1 | – | – | – | – | – | oral exposure in mouse (Mouse pharmacokinetics): poor oral exposure |
| Cc1nn(C)c(C)c1N(C(F)F)S(=O)(=O)c1c(Cl)cc(CCCOC[C@@H]2CCCCN2)cc1Cl [compound 88] | – | – | – | – | 87 | 7 | 5300 | 840 | 10 | – |
| Cc1nn(C)c(C)c1N(C(F)F)S(=O)(=O)c1c(Cl)cc(CCCN2CCN3CCC[C@@H]3C2)cc1Cl [compound 53] | – | – | 15 | 15 | – | – | – | – | – | oral exposure in mouse (Mouse pharmacokinetics): no improvement to oral exposure |
| Cc1nn(C)c(C)c1N(C(F)F)S(=O)(=O)c1c(Cl)cc(CCCOC[C@H]2CCCCN2)cc1Cl [compound 89] | – | – | – | – | 85 | 7 | 5000 | 570 | 7 | – |
| Cc1nn(C)c(C)c1N(C(F)F)S(=O)(=O)c1c(Cl)cc(CCCC2CCN(C)CC2)cc1Cl [compound 40, 2,6-Dichloro-N-(difluoromethyl)-4-(3-(1-methylpiperidin-4-yl)propyl)-N-(1,3,5-trimethyl-1H-pyrazol-4-yl)benzenesulfonamide] | 67 | did not undergo sulfonamide N-dealkylation | – | – | – | – | – | – | – | ~EC99 [3]: […]; oral dose needed to deliver stage 2 cures (Dose required) [5]: 20 mg/kg; fraction unbound ([5]; mouse, in vivo): 0.019; Conc in brain ([5]; oral dose 50mg/kg): 1031 ng/g; Free brain conc ([5]; oral dose 50mg/kg): 19.6 ng/g; toxicity in infected mice in stage 2 model (T. b. brucei GVR35): 1/5; efficacy in stage 2 model (mice cured) (T. b. brucei GVR35; the two 100 mg/kg extended dosing schedules (8 days; 3 x 3 days pulsed)): 1/5; efficacy in a stage 2 (CNS) mouse model of HAT (T. b. brucei GVR35; words): partial efficacy; MTD at 1 day ([6]; po): 100 mg/kg; Cmax (Mouse pharmacokinetics; [8]): 661 ng/mL; oral exposure in mouse (Mouse pharmacokinetics): good oral exposure; Activity in stage 1 mouse model (T. b. brucei S427): fully curative |
| Cc1nn(C)c(C)c1N(C(F)F)S(=O)(=O)c1c(Cl)cc(CCCOC2CCC(N(C)C)CC2)cc1Cl (centres unmarked) [compound 76] | – | – | – | – | 3 | 2 | 570 | 5 | 2 | – |

Reference: PMC4269550, “Lead Optimization of a Pyrazole Sulfonamide Series of Trypanosoma bruceiN-Myristoyltransferase Inhibitors: Identification and Evaluation of CNS Penetrant Compounds as Potential Treatments for Stage 2 Human African Trypanosomiasis” (Journal of Medicinal Chemistry, 2014)
